Test [1] concerns phorbol 12-myristate-13-acetate induced ear swelling. Kind of test: Acute cutaneous inflammation in mice (phorbol 12-myristate-13-acetate test). The class given is in vivo. The note with it: Mus musculus; topical on ears of mice 30 minutes before phorbol 12-myristate-13-acetate; swelling of the ear at 6 hours. As for the experimental part:
In the following test, the measurements were carried out on groups of five mice. The tests on the groups of control mice are carried out at the same time as those on the groups of mice which have received the test compounds.
5 μg of phorbol 12-myristate-13-acetate in 20 μl of an ethanol/water mixture (8:2) are applied to the front and rear surfaces of the right ears of the mice, 30 minutes after the application in a similar manner of the test compounds or of the vehicle (2×20 μl at 5-minute intervals in absolute alcohol). The swelling of the ear is measured 6 hours later with the aid of a Dyer micrometer. That measurement is used as the inflammation index.

Test [2] concerns 5-lipoxygenase. Kind of test: LTB4 production by rabbit granulocytes stimulated in vitro by A 23187 (enzyme immunoassay). In kind it is cell-based. The note with it: 10-^7 M. The text has this:
(§1) The object of this study is to determine the effects of compounds of the invention on the lipoxygenase and cyclo-oxygenase activities of rabbit granulocytes stimulated in vitro by A 23187, by measuring the levels of PGE2 and LTB4 thus liberated by means of an enzyme immunoassay (EIA). The granulocytes are isolated from rabbit blood collected from the main artery of the ear according to the method described by Trush et al. (1978). They are suspended, at a density of 10^6 cells/cm^3, in a phosphate buffer (mM): NaCl: 137; KCl: 2.68; Na2 HPO4 : 8.1; KH2 PO4 : 1.47; CaCl2 : 0.9; MgCl2 : 0.5 The freshly obtained granulocytes are pre-incubated for a period of 15 minutes at 37° C. in the presence of the test products. The results are expressed as percentages of the positive control. The values are presented as the mean±s.e.m. of three measurements carried out on the same day, for the "screening" study, and of three measurements carried out on three different days for the IC50 study. The IC50 values and the Hill number values (Hn) are determined by modelling using the Hill equation.

Test [3] has as its system cyclo-oxygenase. Put plainly: PGE2 production by rabbit granulocytes stimulated in vitro by A 23187 (enzyme immunoassay). The class given is cell-based. The note with it: 10-^7 M.
Description: as §1

Usually IC50 stands for the concentration needed to halve the response being measured. The low end stands for higher potency, the high end for lower potency. `O=C(O)Cn1c2c(c3cc(OCc4ccc5ccccc5n4)ccc31)CCCCCC2` [Example 4, 2-{3-[(QUINOL-2-YL)METHYLOXY]-5,6,7,8,9,10,11-HEPTAHYDRO-CYCLOOCT[b]INDOLE}ACETIC ACID] showed a half-inhibitory concentration (IC50) in test [1] of 15 µM. That is a double-digit micromolar value.
As to `CCOC(=O)Cn1c2c(c3cc(OCc4ccc5ccccc5n4)ccc31)CCCCCC2` [Example 2], the “inhibition of the production of LTB4” value in test [2] is “completely”. The “effect on the production of PGE2” value in test [3] is on record as “without reducing”. The compound also registered an IC50 in test [1] of 20 µM.
